{
  "source": "patent US20110223244A1",
  "about": "“ALCOHOL RESISTANT ENTERIC PHARMACEUTICAL COMPOSITIONS” (priority 2010, published 2011)",
  "origin": "cited, not measured here",
  "conditions": "yields 1-(2-thienyl)carbinol, naphthol and substituted naphthols",
  "note": "Structures can show the parent of a compound that is named as a salt.",
  "data": [
    {"smiles": "CNCC[C@H](Oc1cccc2ccccc12)c1cccs1", "note": "[duloxetine HCl]", "values": [
      {"measurement": "stability in aqueous HCl", "result": "rapidly undergoes solvolysis and rearrangement"}
    ]}
  ]
}
